In paper PMC8589421, “Impact of Type II LRRK2 inhibitors on signaling and mitophagy” (Biochemical Journal, 2021):
Read-outs that look alike come from different tables or passages of the source.

How the values were obtained:
[1] = test system: LRRK2 Ser935 phosphorylation, LRRK2[R1441C]; experiment: LRRK2 Ser935 phospho-immunoblot in LRRK2[R1441C] knock-in MEFs; format: cell-based, mouse; details: dose and time dependent
Protocol: (§1) Wild-type and homozygous LRRK2 [R1441C] (Jax, stock number: 009346), LRRK2[G2019S] Taconic, (model 13940) and LRRK2 [A2016T] (Jax, stock number: 021828)[7] knock-in MEF cells were isolated from littermate-matched mouse embryos on a C57BL/6J background at day E12.5 as described previously. MEFs were grown in Dulbecco's modified Eagle medium (DMEM GIBCO, #11960-085) containing 10% (by vol) fetal bovine serum (FBS), 2 mM L-glutamine, 100 U/ml penicillin, and […] streptomycin supplemented with non-essential amino acids and 1 mM sodium pyruvate. Human embryonic kidney 293 (HEK293) (#ATCC CRL-1573) and HeLa (#ATCC CCL-2) cells were purchased from American Tissue Culture Collection (ATCC) and cultured in DMEM containing 10% (by vol) FBS, 2 mM L-glutamine, 100 U/ml penicillin, and […] streptomycin. All cells were grown at 37°C, 5% (by vol) CO2 in a humidified atmosphere and regularly tested for mycoplasma contamination.
(§2) Inhibitors were dissolved in dimethyl sulfoxide (DMSO) (Sigma, #D2650). The inhibitors were diluted 1000× into cell medium. The equivalent volume of DMSO was added to the minus inhibitor controls. Experiments were performed in six-well plates, 10 cm dishes or 15 cm dishes depending on the amount of cell extract required.
(§3) Cells were lysed in an ice-cold lysis buffer containing 50 mM Tris–HCl, pH 7.4, 1% (by vol) Triton X-100, 10% (by vol) glycerol, 150 mM NaCl, 1 mM sodium orthovanadate, 50 mM NaF, 10 mM 2-glycerophosphate, 5 mM sodium pyrophosphate, 1 µg/ml microcystin-LR, and cOmplete EDTA-free protease inhibitor cocktail (Roche, #11836170001). Lysates were incubated on ice for 30 min and clarified by centrifugation at 20 800×g at 4°C for 20 min. Supernatants were quantified by Bradford assay (Bio-Rad Protein Assay Dye Reagent Concentrate #5000006) and samples prepared in 1× lithium dodecyl sulfate sample buffer final concentration (NuPage LDS Sample buffer 4× Invitrogen, #NP0008). When not deployed immediately, lysates were snap-frozen in liquid nitrogen and stored at −80°C until use.
Cell extracts were mixed with a quarter of a volume of NuPage LDS Sample buffer 4× Invitrogen and heated at 95°C for 5 min. […] At the end of electrophoresis, proteins were electrophoretically transferred onto the nitrocellulose membrane (GE Healthcare, Amersham Protran Supported 0.45 µm NC) at 100 V for 90 min on ice in the transfer buffer (48 mM Tris–HCl and 39 mM glycine supplemented with 20% methanol). Transferred membrane was blocked with 5% (w/v) skim milk powder dissolved in TBS-T [20 mM Tris–HCl, pH 7.5, 150 mM NaCl and 0.1% (v/v) Tween 20] at room temperature for 1 h. […]

LRRK2 at Ser935 = experiment: LRRK2 Ser935 phospho-immunoblot in wild-type MEFs; format: cell-based, mouse; details: MEFs, 2 h dose response
Protocol: (§4) Wild-type and homozygous LRRK2 [R1441C] […] All cells were grown at 37°C, 5% (by vol) CO2 in a humidified atmosphere and regularly tested for mycoplasma contamination.
as §2
(§5) Lysates were incubated on ice for 30 min and clarified by centrifugation at 20 800×g at 4°C for 20 min. Supernatants were quantified by Bradford assay (Bio-Rad Protein Assay Dye Reagent Concentrate #5000006) and samples prepared in 1× lithium dodecyl sulfate sample buffer final concentration (NuPage LDS Sample buffer 4× Invitrogen, #NP0008). When not deployed immediately, lysates were snap-frozen in liquid nitrogen and stored at −80°C until use.
(§6) Cell extracts were mixed with a quarter of a volume of NuPage LDS Sample buffer 4× Invitrogen and heated at 95°C for 5 min. […] At the end of electrophoresis, proteins were electrophoretically transferred onto the nitrocellulose membrane (GE Healthcare, Amersham Protran Supported 0.45 µm NC) at 100 V for 90 min on ice in the transfer buffer (48 mM Tris–HCl and 39 mM glycine supplemented with 20% methanol). Transferred membrane was blocked with 5% (w/v) skim milk powder dissolved in TBS-T [20 mM Tris–HCl, pH 7.5, 150 mM NaCl and 0.1% (v/v) Tween 20] at room temperature for 1 h. The membrane was typically cropped into three pieces, namely the ‘top piece’ (from the top of the membrane to 75 kDa), the ‘middle piece’ (between 75 and 30 kDa) and the ‘bottom piece’ (from 30 kDa to the bottom of the membrane). All primary antibodies were used at 1 μg/ml final concentration and incubated in TBS-T containing 5% (by mass) bovine serum albumin with exception of α-tubulin and GAPDH antibodies that were diluted 1 : 5000 and 1 : 2000, respectively. The top piece was incubated with the indicated rabbit anti-LRRK2 phosphorylation site antibody multiplexed with mouse anti-LRRK2 C-terminus total antibody. The middle piece was incubated with mouse anti-GAPDH or anti-α-tubulin antibody. The bottom pieces were incubated with indicated total and phospho-Rab antibodies. Membranes were incubated in primary antibody overnight at 4°C. Prior to secondary antibody incubation, membranes were washed three times with TBS-T for 10 min each. […] Membranes were washed with TBS-T for three times with a 10 min incubation for each wash. Protein bands were acquired via near infrared fluorescent detection using the Odyssey CLx imaging system and quantified using the Image Studio software.

[2] = test system: Dundee panel of 140 protein kinases; experiment: Kinase profiling; format: biochemical
From the text: […] Results for each kinase are presented as the mean kinase activity ±S.D. for an assay undertaken in duplicate relative to a control kinase assay in which the inhibitor was omitted. Abbreviations and assay conditions used for each kinase are available (http://www.kinase-screen.mrc.ac.uk/services/premier-screen).

[3] = test system: Rab10 pThr73, LRRK2 [G2019S]; experiment: Rab10 Thr73 phospho-immunoblot in LRRK2[G2019S] knock-in MEFs; format: cell-based, mouse; details: Mus musculus, 2 h, read-out: LRRK2 [G2019S] Rab10 pThr73 IC50
Protocol: as §1, §2
as §3, with “use. […]” for “use.”

[4] = test system: Rab10 phosphorylation, LRRK2[A2016T]; experiment: Rab10 Thr73 phospho-immunoblot in inhibitor resistant LRRK2[A2016T] knock-in MEFs; format: cell-based, mouse; details: 2 h, up to 3 µM
Protocol: as §1, §2
as §3, with “use. […]” for “use.”

[5] = test system: LRRK2 mediated phosphorylation of Rab10 at Thr73; experiment: Rab10 Thr73 phospho-immunoblot in wild-type MEFs; format: cell-based, mouse; details: Mus musculus, 2 h
Protocol: as §4, §2, §5, §6

[6] = test system: Rab10 pThr73, LRRK2 [R1441C]; experiment: Rab10 Thr73 phospho-immunoblot in LRRK2[R1441C] knock-in MEFs; format: cell-based, mouse; details: Mus musculus, 2 h, read-out: LRRK2 [R1441C] Rab10 pThr73 IC50
Protocol: as §1, §2
as §3, with “use. […]” for “use.”

[7] = test system: mouse embryonic fibroblast cells (MEFs); experiment: Cell morphology and attachment of MEFs; format: cell-based

| SMILES | effect on Ser935 phosphorylation in LRRK2[R1441C] knock-in cells [1] | effect on LRRK2 Ser935 phosphorylation (LRRK2 at Ser935) | number of the 140 kinases assayed suppressed by over 80% ([2]; 1 μM inhibitor) | IC50 [3] [nM] | effect of A2016T mutation on inhibition of Rab10 phosphorylation [4] | IC50 ([5]; read-out: LRRK2 WT Rab10 pThr73 IC50, wild type MEFs littermate matched to LRRK2[G2019S], 2 h, panel (B)) [nM] | IC50 ([5]; read-out: LRRK2 WT Rab10 pThr73 IC50, wild type MEFs littermate matched to LRRK2[R1441C], 2 h, panel (A)) [nM] | IC50 [6] [nM] | number of the 140 kinases assayed suppressed by over 80% ([2]; 0.1 μM inhibitor) | inhibition at 10 µM ([5]; wild-type MEFs, 10 μM) [%] | concentration that impacted cell morphology and attachment [7] |
| --- | --- | --- | --- | --- | --- | --- | --- | --- | --- | --- | --- |
| CNC(=O)c1cc(Oc2ccc(NC(=O)Nc3cc(C(C)(C)C)nn3-c3ccc4ncccc4c3)c(F)c2)ccn1 [Rebastinib] | rescue Ser935 phosphorylation | did not induce dephosphorylation of Ser935 | 18 | 1070 | markedly blocked | 478 | 539 | 1310 |  |  |  |
| Cc1ccc(C(=O)Nc2ccc(CN3CCN(C)CC3)c(C(F)(F)F)c2)cc1C#Cc1cnc2cccnn12 [Ponatinib] |  | without affecting Ser935 phosphorylation | 20 |  |  |  |  |  | 14 | ~50 | above 10 μM |
| C[C@@H]1CN(c2cc(-c3n[nH]c4ccc(OC5(C)CC5)cc34)ncn2)C[C@H](C)O1 [MLi-2] |  | complete dephosphorylation |  |  | markedly suppressed inhibition of Rab10 phosphorylation |  |  |  |  |  |  |
